Results taken from paper PMC3938723, “Learning from Host-Defense Peptides: Cationic, Amphipathic Peptoids with Potent Anticancer Activity” (PLoS ONE, 2014).
Non-standard residues stand in square brackets, D forms with d. Residues, ends and D or L forms follow the SMILES beside them. Nspe = C[C@H](NCC(=O)O)c1ccccc1; NhArg = N=C(N)NCCCCNCC(=O)O; Nlys = NCCCCNCC(=O)O

Assays:
MCF-7 (breast cancer) = test: MTS cell viability assay, MCF-7; assay type: cell-based
Description: (§1) MCF-7, MCF-7/TxT50 and OVCAR-3 (available in ATCC) were kindly provided by Professor Branimir Sikic's lab at Stanford University, and were cultured in McCoy's 5A media (GIBCO) with 10% FBS and antibiotics. Primary dermal fibroblasts were gifts from Lifeline Cell Technology and were cultured <6 passages according to the protocol Lifeline provides. All the cells were cultured in cell incubators (Thermo Scientific) at 37°C with 5% CO2.
(§2) This assay is a colorimetric method for determining the number of viable cells in proliferation. Aliquots of 100 µl media containing 1×10^4 cells were distributed into each well of a 96-well plate (BD Falcon). The following day, when cell density reaches about ∼40% confluency, the cell media were removed and replaced with serial dilutions of peptoid stocks in culturing media. For peptoid dilutions, peptoid stocks were initially diluted in media at 100 µM and then diluted by half in series using a multichannel pipette, and maintained in 100 µl media for each concentration with triple repeats. After peptoid solutions were transferred onto cells in 96-well plates, cells were incubated at 37°C for certain time periods. Then 20 µl of the CellTiter 96 Aqueous Non-Radioactive cell proliferation assay (Promega) reagent which contains a tetrazolium compound, [3-(4,5-dimethylthiazol-2-yl)-5-(3-carboxymethoxyphenyl)-2-(4-sulfophenyl)-2H-tetrazolium, inner salt; MTS(a)], was added to each well and cells were further incubated for 2 h to metabolize. The absorbance of formazan products were measured at 490 nm in a microplate reader (Molecular Devices). Percentage of cell viability = (A -A testblank)/(A control -A blank)×100, where A is the absorbance of the test well and A control the average absorbance of wells with cells not treated with peptoids. A testblank (media, MTS, and diluted peptoids) and A blank (media and MTS) were background absorbances measured in the absence of cells.
(§3) The activity and selectivity of these peptoids against cancer cells were evaluated in vitro. Their cytotoxicity was tested in three cancer cell lines, MCF-7 (human breast cancer), LNCaP (human prostate cancer), and OVCAR-3 (human ovarian cancer). To estimate the selectivity of these peptoids in vitro, hemolytic activities of some peptoids were cited from previously published work (Table 2 **column), and the MRC-5 cell line (human fibroblasts derived from fetal lung tissues) and primary dermal fibroblasts were also tested as normal cell controls. Briefly, cells were treated with peptoids diluted in culturing media for certain time periods, and then cell viability was measured via MTS assays.

LNCaP (prostate cancer) = test: MTS cell viability assay, LNCaP; assay type: cell-based
Description: as §2, §3

OVCAR3 (ovarian cancer) = test: MTS cell viability assay, OVCAR3; assay type: cell-based
Description: as §1, §2, §3

[1] = system: MRC-5 (fetal lung fibroblast); test: MTS cell viability assay, MRC-5; assay type: cell-based
Description: as §1, §2, §3

[2] = system: Primary dermal fibroblast; test: MTS cell viability assay, primary dermal fibroblasts; assay type: cell-based
Description: as §1, §2, §3

human red blood cells = conditions: cited from earlier work
From the text: Table 2 Peptoid Cytotoxicity in cancer cell lines and control cells. | column: HC10 (µM) ** || The chain length is believed to influence not only the activity but also modes of action of cationic, amphipathic peptides, [34]. […] Thus we limited the chain length of peptoids to 13 residues at most, and studied 1 9mer which has the same charge-to-length ratio (CTLR) as peptoid ...

[3] = Analytical RP-HPLC elution as relative measure of molecular hydrophobicity; assay type: physicochemical; conditions: percentage of acetonitrile at elution, analytic RP-HPLC, C18 column, linear water/acetonitrile (0.1% trifluoroacetic acid) gradient 5%-95% acetonitrile over 30 min
From the text: Peptoids were synthesized using an ABI 433A peptide synthesizer (Applied Biosystems, Inc.) on Rink amide MBHA resin (EMD Biosciences, Gibbstown, NJ) using the submonomer protocol, [24]. Briefly, the amine on the nascent chain is bromoacetylated or chloroacetylated followed by SN2 displacement of bromide or chloride by a primary amine to form the side chain. Resin-bound peptoids were then exposed to a mixture of trifluoroacetic acid (TFA): triisopropylsilane: water (95∶2.5∶2.5, volume ratio) for 10 minutes to cleave peptoids from the resin. Crude peptoids were purified by reversed-phase high performance liquid chromatography (RP-HPLC) (Waters Corporation) using a C18 column and a linear acetonitrile/water gradient. A final purity >95% as measured by analytical RP-HPLC (Waters Corporation) was achieved, and the identity of each peptoid was confirmed using electrospray ionization mass spectrometry (ESI/MS). Pexiganan was synthesized by standard Fmoc chemistry on an ABI 433A peptide synthesizer ([…]). Unless indicated otherwise, all reagents were purchased from Sigma Aldrich (St. Louis, MO). Among the submonomers used, Nspe was derived from (S)-N-(1-phenylethyl)amine; Npm from benzylamine ([…]); NHis from histamine (2-[4-imidazolyl]ethylamine); NLeu from isobutylamine; NLys from N-tert-butoxycarbonyl-1,4-butanediamine (CNH Technologies, MA). Guanidinylation of NLys was carried out according to the reported procedure. When NHis was used in the peptoid sequence, chloroacetic acid was used. 5(6)-Carboxyfluorescein was used to label the N-terminus of peptoid 1 [28].
Peptoids were utilized herein as a peptidomimetic scaffold to capture the cationic, amphipathic nature of anticancer peptides, as well as to improve molecular stability and to increase chemical diversity. The design of anticancer peptoids were derived from previous antimicrobial peptoids and were further optimized hererin to improve the activity and selectivity of peptoids against anionic membranes, [24], [25]. […] Several novel variants were designed based on peptoid 1 but with different charges, amphipathicity, length, and helicity to change their activity or selectivity. The sequences of these variants, the solvent composition at RP-HPLC elution as a relative measure of molecular hydrophobicity, molecular net charges and their charge-to-length ratio are summarized in Table 1. […] Pexiganan, a clinically-relevant peptide analog of magainin 2 which was developed for topical treatment for diabetic foot infection, and LL-37, the only known human cathelicidin which is a non-selective antimicrobial peptide, were also tested for comparison.

[4] = MTS assay, 72 h treatment, media with 10% FBS, max 100 µM tested, triple repeats
[5] = normal cell control, MTS assay, 72 h treatment, media with 10% FBS, max 100 µM tested

Compound | LC50 MCF-7 (breast cancer) (MCF-7 (breast cancer); [4]) [µM] | LC50 LNCaP (prostate cancer) (LNCaP (prostate cancer); [4]) [µM] | LC50 OVCAR3 (ovarian cancer) (OVCAR3 (ovarian cancer); [4]) [µM] | LC50 MRC-5 (fetal lung fibroblast) [1, 5] [µM] | LC50 Primary dermal fibroblast [2, 5] [µM] | HC10 (human red blood cells) [µM] | HPLC elution [3] [% ACN] | LC50 MCF-7 (breast cancer) (MCF-7 (breast cancer); 72 h) [µM] | LC50 LNCaP (prostate cancer) (LNCaP (prostate cancer); 72 h) [µM] | LC50 OVCAR3 (ovarian cancer) (OVCAR3 (ovarian cancer); 72 h) [µM] | LC50 MRC-5 (fetal lung fibroblast) ([1]; 72 h) [µM] | LC50 Primary dermal fibroblast ([2]; 72 h) [µM] | hemolytic activity (human red blood cells)
CC[C@H](C)[C@H](NC(=O)CN)C(=O)NCC(=O)N[C@@H](CCCCN)C(=O)N[C@@H](Cc1ccccc1)C(=O)N[C@@H](CC(C)C)C(=O)N[C@@H](CCCCN)C(=O)N[C@@H](CCCCN)C(=O)N[C@@H](C)C(=O)N[C@@H](CCCCN)C(=O)N[C@@H](CCCCN)C(=O)N[C@@H](Cc1ccccc1)C(=O)NCC(=O)N[C@@H](CCCCN)C(=O)N[C@@H](C)C(=O)N[C@@H](Cc1ccccc1)C(=O)N[C@H](C(=O)N[C@@H](CCCCN)C(=O)N[C@H](C(=O)N[C@@H](CC(C)C)C(=O)N[C@@H](CCCCN)C(=O)N[C@@H](CCCCN)C(N)=O)[C@@H](C)CC)C(C)C [Pexiganan, reference compound] (H-GIGKFLKKAKKFGKAFVKILKK-NH2) | 8 | 6 | 13 | 21 | 19 | 70 |  |  |  |  |  |  | 
CC(C)CN(CC(N)=O)C(=O)CN(CCCCN)C(=O)CN(CC(C)C)C(=O)CN(CC(C)C)C(=O)CN(CCCCN)C(=O)CN(CC(C)C)C(=O)CN(CC(C)C)C(=O)CN(CCCCN)C(=O)CN(CC(C)C)C(=O)CN(CC(C)C)C(=O)CNCCCCN [1 11mer-NLeu, H-(NLys-NLeu-NLeu)3-NLys-NLeu-NH2] |  |  |  |  |  |  | 51 | >100 | >100 | >100 | >100 | >100 | 
C[C@@H](c1ccccc1)N(CC(N)=O)C(=O)CN(CCCCN)C(=O)CN(CCCCN)C(=O)CN(C(=O)CN(C(=O)CN(CCCCN)C(=O)CN(C(=O)CN(CCCCN)C(=O)CN(CCCCN)C(=O)CN(C(=O)CN(C(=O)CNCCCCN)[C@@H](C)c1ccccc1)[C@@H](C)c1ccccc1)[C@@H](C)c1ccccc1)[C@@H](C)c1ccccc1)[C@@H](C)c1ccccc1 [1-NLys5,11, H-(NLys-Nspe-Nspe-NLys-NLys-Nspe)2-NH2] (H-[Nlys][Nspe][Nspe][Nlys][Nlys][Nspe][Nlys][Nspe][Nspe][Nlys][Nlys][Nspe]-NH2) |  |  |  |  |  | >100 | 51.2 | 31 | 25 | 37 | 41 | 34 | 
C[C@@H](c1ccccc1)N(CC(=O)N(CCCCN)CC(=O)N(CC(=O)N(CC(=O)N(CCCCN)CC(=O)N(CC(=O)N(CC(=O)N(CCCCN)CC(=O)N(CC(=O)N(CC(=O)N(CCCCN)CC(N)=O)[C@@H](C)c1ccccc1)[C@@H](C)c1ccccc1)[C@@H](C)c1ccccc1)[C@@H](C)c1ccccc1)[C@@H](C)c1ccccc1)[C@@H](C)c1ccccc1)C(=O)CN(C(=O)CNCCCCN)[C@@H](C)c1ccccc1 [1 13mer, H-(NLys-Nspe-Nspe)4-NLys-NH2] (H-[Nlys][Nspe][Nspe][Nlys][Nspe][Nspe][Nlys][Nspe][Nspe][Nlys][Nspe][Nspe][Nlys]-NH2) |  |  |  |  |  | 21 | 62.8 | 8 | 8 | 9 | 10 | 14 | 
CC[C@H](C)[C@H](NC(=O)[C@H](CCCCN)NC(=O)[C@H](CCC(=O)O)NC(=O)[C@H](CCCCN)NC(=O)[C@H](CO)NC(=O)[C@H](CCCCN)NC(=O)[C@H](CCCNC(=N)N)NC(=O)[C@H](Cc1ccccc1)NC(=O)[C@H](Cc1ccccc1)NC(=O)[C@H](CC(=O)O)NC(=O)CNC(=O)[C@H](CC(C)C)NC(=O)[C@@H](N)CC(C)C)C(=O)NCC(=O)N[C@@H](CCCCN)C(=O)N[C@@H](CCC(=O)O)C(=O)N[C@@H](Cc1ccccc1)C(=O)N[C@@H](CCCCN)C(=O)N[C@@H](CCCNC(=N)N)C(=O)N[C@H](C(=O)N[C@H](C(=O)N[C@@H](CCC(N)=O)C(=O)N[C@@H](CCCNC(=N)N)C(=O)N[C@H](C(=O)N[C@@H](CCCCN)C(=O)N[C@@H](CC(=O)O)C(=O)N[C@@H](Cc1ccccc1)C(=O)N[C@@H](CC(C)C)C(=O)N[C@@H](CCCNC(=N)N)C(=O)N[C@@H](CC(N)=O)C(=O)N[C@@H](CC(C)C)C(=O)N[C@H](C(=O)N1CCC[C@H]1C(=O)N[C@@H](CCCNC(=N)N)C(=O)N[C@H](C(=O)N[C@@H](CCC(=O)O)C(=O)N[C@@H](CO)C(=O)O)[C@@H](C)O)C(C)C)[C@@H](C)CC)C(C)C)[C@@H](C)CC [LL 37, LL-37, reference compound] |  |  |  |  |  |  |  | 21 | 27 | 24 | 24 | 26 | 
H-(NLys-Nspe-Nspe)5-NH2 [peptoid 1 15mer, reference compound] |  |  |  |  |  |  |  |  |  |  |  |  | substantially higher hemolytic activity
C[C@@H](c1ccccc1)N(CC(N)=O)C(=O)CN(Cc1ccccc1)C(=O)CN(CCCCN)C(=O)CN(Cc1ccccc1)C(=O)CN(Cc1ccccc1)C(=O)CN(CCCCN)C(=O)CN(Cc1ccccc1)C(=O)CN(Cc1ccccc1)C(=O)CN(CCCCN)C(=O)CN(Cc1ccccc1)C(=O)CN(C(=O)CNCCCCN)[C@@H](C)c1ccccc1 [1 achiral-Nspe2, 12, H-NLys-Nspe-Npm-(NLys-Npm-Npm)2-NLys-Npm-Nspe-NH2] |  |  |  |  |  |  | 62 | 12 | 10 | 16 | 21 | 32 | 
C[C@@H](c1ccccc1)N(CC(N)=O)C(=O)CN(C(=O)CN(CCCCNC(=N)N)C(=O)CN(C(=O)CN(C(=O)CN(CCCCNC(=N)N)C(=O)CN(C(=O)CN(C(=O)CN(CCCCNC(=N)N)C(=O)CN(C(=O)CN(C(=O)CNCCCCNC(=N)N)[C@@H](C)c1ccccc1)[C@@H](C)c1ccccc1)[C@@H](C)c1ccccc1)[C@@H](C)c1ccccc1)[C@@H](C)c1ccccc1)[C@@H](C)c1ccccc1)[C@@H](C)c1ccccc1 [Peptoid 1-Nbtg, H-(Nbtg-Nspe-Nspe)4-NH2] (H-[NhArg][Nspe][Nspe][NhArg][Nspe][Nspe][NhArg][Nspe][Nspe][NhArg][Nspe][Nspe]-NH2) |  |  |  |  |  |  |  | 5 | 8 | 8 | 10 | 8 | 
